MIC and Activity data for 19 compounds are collected here from ChEMBL document CHEMBL2016471, “5-benzylidenerhodanine and 5-benzylidene-2-4-thiazolidinedione based antibacterials” (2012).

The subject of assay [1] is Staphylococcus aureus. Description: Antibacterial activity against Staphylococcus aureus ATCC 31890. In kind it is functional.
Assay [2] relates to Staphylococcus epidermidis. Kind of assay: Antibacterial activity against Staphylococcus epidermidis. It counts as functional.
A further assay concerns Bacillus subtilis. Description: Antibacterial activity against Bacillus subtilis ATCC 6633. In kind it is functional.
The test system of assay [3] is Escherichia coli. Kind of assay: Antibacterial activity against Escherichia coli K-12. In kind it is functional, organism-based.
The test system of assay [4] is Staphylococcus aureus. Kind of assay: Bacteriostatic activity against Staphylococcus aureus after 6 hrs. It counts as functional, organism-based.
Assay [5] concerns Escherichia coli. Kind of assay: Antibacterial activity against TolC-deficient Escherichia coli. It counts as functional.

Molecules are shown by their SMILES. Values after ≈ are worked out from the molar mass of the structure shown. Active and inactive are the calls of the source. The calls are words filed in the database; no cut-off is given here.

For the compound `CCCc1ccccc1NC(=O)[C@H](C)NC(=O)c1ccc(/C=C2\SC(=S)NC2=O)cc1`, the MIC with Staphylococcus aureus [1] was greater than 64 µg/mL; in assay [2], greater than 64 µg/mL; against Bacillus subtilis it was 32 µg/mL (≈ 70.5 µM). For the same compound, the result in the assay with Escherichia coli [3] was inactive.
For `CCCc1ccccc1NC(=O)[C@H](C)NC(=O)c1ccc(/C=C2\SC(=O)NC2=O)cc1`, the minimal inhibitory concentration (MIC) (in the assay with Staphylococcus aureus [1]; in assay [2]; against Bacillus subtilis) was greater than 64 µg/mL in each case. For the same compound, the outcome in the assay on Escherichia coli [3] was inactive.
In the case of `O=C1NC(=S)S/C1=C\c1ccc(C(=O)O)cc1`, the MIC (against Staphylococcus aureus [1]; in assay [2]; against Bacillus subtilis) was greater than 64 µg/mL in each case. In addition, in the assay with Escherichia coli [3], the outcome was inactive.
On to `CCCc1ccccc1NC(=O)[C@H](COC(C)(C)C)NC(=O)c1ccc(/C=C2\SC(=S)NC2=O)cc1`, for which the values for the MIC (in the assay on Staphylococcus aureus [1]; in assay [2]; in the assay with Bacillus subtilis) were 16 µg/mL (≈ 30.4 µM), 16 µg/mL (≈ 30.4 µM) and 8 µg/mL (≈ 15.2 µM), respectively. Also, the outcome with Escherichia coli [3] was inactive.
In the case of `CCCc1ccccc1NC(=O)[C@H](Cc1ccc(O)cc1)NC(=O)c1ccc(/C=C2\SC(=S)NC2=O)cc1`, the results for the MIC (with Staphylococcus aureus [1]; in assay [2]; with Bacillus subtilis) were greater than 64 µg/mL, greater than 64 µg/mL and 8 µg/mL (≈ 14.7 µM), respectively. The result in the assay with Escherichia coli [3] was inactive.
For the compound `CCCc1ccccc1NC(=O)[C@H](COCc1ccccc1)NC(=O)c1ccc(/C=C2\SC(=S)NC2=O)cc1`, the MIC against Staphylococcus aureus [1] is greater than 64 µg/mL; in assay [2] it was greater than 64 µg/mL; with Bacillus subtilis, 8 µg/mL (≈ 14.3 µM). Also, in the assay with Escherichia coli [3], the result was inactive.
Consider `CCCc1ccccc1NC(=O)[C@H](CC(C)C)NC(=O)c1ccc(/C=C2\SC(=O)NC2=O)cc1`, for which the MIC with Staphylococcus aureus [1] was greater than 64 µg/mL; in assay [2], greater than 64 µg/mL; with Bacillus subtilis it was 8 µg/mL (≈ 16.7 µM). In addition, in the assay with Escherichia coli [3], the outcome was inactive.
On to `O=C1NC(=O)/C(=C/c2ccccc2)S1`, for which the MIC (with Staphylococcus aureus [1]; in assay [2]; against Bacillus subtilis) was greater than 64 µg/mL each time. The outcome in the assay with Escherichia coli [3] was inactive.
As to `CCCc1ccccc1NC(=O)[C@H](CC(C)C)NC(=O)c1ccc(/C=C2\SC(=S)NC2=O)cc1`, the MIC against Staphylococcus aureus [1] is greater than 64 µg/mL; in assay [2], greater than 64 µg/mL; against Bacillus subtilis, 32 µg/mL (≈ 64.6 µM). For the same compound, the outcome in the assay on Escherichia coli [3] was inactive.
With `CCCc1ccccc1OC[C@H](O)COc1ccc(/C=C2\SC(=O)NC2=O)cc1`, the MIC with Staphylococcus aureus [1] was greater than 64 µg/mL; in assay [2] it was greater than 64 µg/mL; in the assay with Bacillus subtilis, 8 µg/mL (≈ 19.3 µM). In addition, the result in the assay on Escherichia coli [3] was inactive.
Take `CCCc1ccccc1OC[C@H](O)COc1ccc(/C=C2\SC(=S)NC2=O)cc1`: the MIC against Staphylococcus aureus [1] was 16 µg/mL (≈ 37.2 µM); in assay [2], 32 µg/mL (≈ 74.5 µM); against Bacillus subtilis, 16 µg/mL (≈ 37.2 µM). Further, the outcome in the assay on Escherichia coli [3] was inactive. Further, in the assay with Staphylococcus aureus [4], the outcome was Active.
For `CCCc1ccccc1NC(=O)[C@H](Cc1ccccc1)NC(=O)c1ccc(/C=C2\SC(=O)NC2=O)cc1`, the MIC in the assay with Staphylococcus aureus [1] was greater than 64 µg/mL; in assay [2], greater than 64 µg/mL; against Bacillus subtilis, 8 µg/mL (≈ 15.6 µM). In the assay with Escherichia coli [3], the outcome was inactive.
`CCCc1ccccc1NC(=O)[C@H](CO)NC(=O)c1ccc(/C=C2\SC(=S)NC2=O)cc1`: the MIC (against Staphylococcus aureus [1]; in assay [2]; in the assay on Bacillus subtilis) was greater than 64 µg/mL in each case. For the same compound, the result with Escherichia coli [3] was inactive.
Consider `O=C1NC(=S)S/C1=C\c1ccco1`, for which the MIC in the assay with Staphylococcus aureus [1] is 16 µg/mL (≈ 75.7 µM); in assay [2], 16 µg/mL (≈ 75.7 µM); with Bacillus subtilis, greater than 64 µg/mL. The outcome in the assay on Escherichia coli [3] was inactive.
In the case of `CCCc1ccccc1NC(=O)[C@H](Cc1ccccc1)NC(=O)c1ccc(/C=C2\SC(=S)NC2=O)cc1`, the MIC (with Staphylococcus aureus [1]; in assay [2]; in the assay with Bacillus subtilis) was greater than 64 µg/mL throughout. Besides, the outcome in the assay on Escherichia coli [3] was inactive.
Consider `O=C1NC(=O)/C(=C/c2cccnc2)S1`, for which the MIC (with Staphylococcus aureus [1]; in assay [2]; with Bacillus subtilis) was greater than 64 µg/mL each time. Further, in the assay on Escherichia coli [3], the outcome was inactive.
Turning to `O=C1NC(=S)S/C1=C\c1ccc2ccccc2c1`, the MIC was 0.5 µg/mL (≈ 1.84 µM) in the assay on Staphylococcus aureus [1], 0.5 µg/mL (≈ 1.84 µM) in assay [2], greater than 64 µg/mL with Bacillus subtilis and 8 µg/mL (≈ 29.5 µM) against Escherichia coli [5]. For the same compound, the result in the assay on Escherichia coli [3] was inactive.
Turning to `CCCc1ccccc1NC(=O)[C@H](CO)NC(=O)c1ccc(/C=C2\SC(=O)NC2=O)cc1`, the minimum inhibitory concentration (MIC) (against Staphylococcus aureus [1]; in assay [2]; against Bacillus subtilis) was greater than 64 µg/mL each time. The result with Escherichia coli [3] was inactive.
In the case of `O=C1NC(=O)/C(=C/c2ccc(C(=O)O)cc2)S1`, the MIC (against Staphylococcus aureus [1]; in assay [2]; with Bacillus subtilis) was greater than 64 µg/mL in each case. The outcome with Escherichia coli [3] was inactive.
